According to patent US20210380988A1, “Reducing Prominin2-Mediated Resistance to Ferroptotic Cell Death” (University of Massachusetts, priority 2020, published 2021):
Where a SMILES comes first, the peptide text is derived from it. The star is where a group is joined. Cbz = O=C(OCc1ccccc1)*; CH2F = FC*

Legend:
Type in all cases: cell-based
prominin2 [1] = test: PROM2 mRNA (qPCR) and prominin2 protein (immunoblot) expression in MCF10A cells; conditions: for prominin2 mRNA and protein expression: adherent MCF10A, 2 hrs, 5 μM RSL3, 250 μM H2O2
Protocol: (§1) Biochemical experiments: Immunoblotting and qPCR were performed as described (Brown C W, 2017). Briefly, for immunoblotting, cell lysates were extracted using radioimmunoprecipitation assay (RIPA) buffer (Boston Bioproducts). Extracts were separated by SDS PAGE using the specified antibodies. Immunoprecipitation was performed on lysates isolated using NP-40 buffer (Boston Bioproducts). Lysates were pre-cleared prior to overnight incubation with the primary antibody and protein A agarose beads (Sigma-Aldrich). Immune complexes were separated by SDS PAGE and immunoblotted as described in figure legends. RNA was isolated from cells (BioBasic) and cDNA was generated using the All in One cDNA Synthesis SuperMix (BioScript Solutions). qPCR was performed using a SYBR green master mix (BioScript Solutions). Sequences for primers used were as follows: […]

HSF1 [2] = test: HSF1 mRNA, protein, S326 phosphorylation and nuclear localization in MCF10A cells; conditions: after 60 minutes of exposure
HSF1 [3] = test: as above; conditions: for time after treatment at which the increase in HSF1 mRNA peaked: 25 uM 4HNE or 5 uM RSL3; for expression of HSF1 mRNA by qPCR: 25 uM 4HNE or 5 uM RSL3, 0 to 120 minutes; for HSF1 protein expression and phosphorylation at S326: after 60 minutes of exposure
Protocol: as §1
(§2) Immunofluorescence microscopy: For adherent cells, 8 well chamber slides (Mattek) were coated with 1 μg/mL laminin (Invitrogen). Cells (5.0×10^4 per well) were plated overnight and then treated for two hours with either DMSO or RSL3, fixed in 4% paraformaldehyde and permeabilized in 0.1% Triton (JT Baker). Slides were blocked in 0.5% BSA (Boston Bioproducts), incubated in antibody overnight at 4° C., washed in PBS and incubated in secondary antibody for 1 hr at room temperature. Slides were washed and mounted in Vectashield with DAPI (Vector Labs). For ECM-detached experiments, cells were trypsinized and plated (5.0×10^5 per well) in 60 mm low-adherent plates (Sumitomo Bakelite) for two hr, collected and spun down prior to being fixed and stained as described above. Slides were imaged on a Zeiss or a Nikon A-1 confocal microscope.

MDA-MB-231 cells [4] = test: Survival of adherent cells in response to GPX4 inhibition (crystal violet); conditions: for cell death in response to compound with exogenous prominin2 expression: MDA-MB-231, prominin2 expression construct vs vector control
Protocol: (§3) Cell-based assays: Assays to assess survival in response to matrix detachment were performed as described (Brown C W, 2017). To assay survival in response to GPX4 inhibition, adherent cells in 96 well plates (1.0×10^4 per well) were treated with either DMSO, RSL3, ML210, FIN56 or erastin for 24 hrs with and without ferrostatin-1 or DFO. Subsequently, cells were fixed in 4% paraformaldehyde (Boston BioProducts), stained with crystal violet (Sigma) and read on a microplate reader (Beckman Colter) at absorbance 595. Absorbances were normalized to DMSO.

Hs578t cells [5] = test: as above; conditions: for sensitivity to compound in prominin2 knock-down cells compared to control cells: prominin2 siRNA 48 hours, compound 24 hrs
Protocol: as §3

MCF10A cells [6] = test: as above; conditions: for sensitivity to compound in prominin2 knock-down cells compared to control cells: prominin2 siRNA 48 hours, compound 24 hrs
Protocol: as §3

prominin2 [7] = test: PROM2 mRNA (qPCR) and prominin2 protein (immunoblot) expression in Hs578t cells; conditions: adherent Hs578t, 2 hrs; 5 μM RSL3, 250 μM H2O2
Protocol: as §1

Hs578t cells [8] = test: Multivesicular body formation (TSG101 immunofluorescence); conditions: RSL3 2 hrs
Protocol: as §2

MCF10A cells [9] = test: Multivesicular body formation (TSG101 immunofluorescence, TEM)
Protocol: as §2
Transmission Electron Microscopy: Adherent siControl and siProminin2 cells were treated with DMSO or RSL3 (5 μM) for two hr. ECM-detached siControl and siProminin2 cells were maintained for 2 hrs in low-adherence plates. All cells were fixed by adding 2.5% glutaraldehyde (v/v) in 0.1 M Na cacodylate buffer (pH 7.2) and processed for TEM. The samples were examined on a FEI Tecnai 12 BT transmission electron microscope using 100 Kv accelerating voltage. Images were captured using a Gatan TEM CCD camera.

prominin2 [10] = test: PROM2 mRNA (qPCR) and prominin2 protein (immunoblot) expression in MDA-MB-231 cells; conditions: adherent MDA-MB-231, RSL3 2 hrs
Protocol: as §1

prominin1 (CD133) = test: PROM1 expression by qPCR; conditions: MCF10A and Hs578t cells, 5 μM RSL3, 2 hrs (FIG. 8A)
Protocol: as §1

MDA-MB-231 cells [11] = test: Total free iron (Iron Assay Kit); conditions: MDA-MB-231 vector control, RSL3 2 hrs; prevented by prominin2 expression
Protocol: (§4) Total free iron was quantified using the Iron Assay Kit (Abcam) per manufacturer's specifications. Briefly, adherent cells in 10 cm plates (1.0×10^6/well) were treated with either DMSO or RSL3 for 2 hrs, lysed and supernatant was reduced using the provided iron reducer before the mixture was reacted with an iron probe. Plates were read at 595 nm and total iron concentration was obtained using an iron standard curve.

Hs578t cells [12] = test: Total free iron (Iron Assay Kit)
Protocol: as §4

MCF10A cells [13] = test: Total free iron (Iron Assay Kit)
Protocol: as §4

MCF10A and Hs578t cells = test: Exosome isolation by ultracentrifugation (protein, ICP-MS iron)
Protocol: Exosome isolation: Cells were cultured for 24 hrs in their respective media containing extracellular vesicle (EV) free serum and treated with RSL3 for 24 hours. Culture supernatants were centrifuged at 4° C. at 1000 RPM for 5 min, 3000 RPM for 10 min, 4000 RPM for 30 min prior to ultracentrifugation at 22,000 RPM for 140 min at 4° C. Pellets were resuspended in cold PBS and centrifuged again under the same conditions. For immunoblotting, pellets were lysed in RIPA buffer, centrifuged at 10,000 RPM for 15 min and protein concentration was determined by Bradford Assay (BioRad). For TEM, PBS was removed and 20 μL of the exosome preparation was fixed and processed. For ICP-mass spec, exosome-containing pellet was resuspended in 0.5 mL PBS and centrifuged in a speed-vac at 45° C. Samples were sent to the UMASS Mass Spectrometry Core where they were digested in 100 μL HNO3, heated to 65° C. for 20 min and diluted to 2 mL with ddH2O before analysis.

Hs578t cells [14] = test: Survival in response to matrix (ECM) detachment; conditions: 24 hrs, ferrostatin-1 (2 μM), ZVAD-fmk (25 μM), deferoxamine
Protocol: as §3

MCF10A cells [15] = test: Survival in response to matrix (ECM) detachment; conditions: 24 hrs, ferrostatin-1 (2 μM), ZVAD-fmk (25 μM), deferoxamine
Protocol: as §3

CCCCCC(O)/C=C/C=O (centres unmarked) [4HNE, 4-hydroxynonenal]
PROM2 transcription (prominin2 [1]; mechanism dependent upon HSF1, cell line not named at b183): stimulates PROM2 transcription
HSF1 expression and nuclear localization (HSF1 [2]): increased
time after treatment at which the increase in HSF1 mRNA peaked (HSF1 [3]): 15 min
expression of HSF1 mRNA by qPCR (HSF1 [3]): significant increase
HSF1 protein expression and phosphorylation at S326 (HSF1 [3]): increased HSF1 protein expression levels as well as phosphorylation at S326

Cc1ccc(-n2nc(C(C)(C)C)cc2NC(=O)Nc2ccc(OCCN3CCOCC3)c3ccccc23)cc1 [BIRB]
induction and phosphorylation of HSF1 following 4HNE or RSL3 treatment (HSF1 [3]; 10 uM BIRB pretreatment): prevented the induction and phosphorylation of HSF1
increase in HSF1 expression and nuclear localization, treatment prior to 4HNE or RSL3 (HSF1 [3]; 10 uM BIRB pretreatment 15 minutes): significantly reduced the increase in expression and nuclear localization
4HNE- or RSL3-driven increase in HSF1 expression on p38 inhibition (HSF1 [3]; pre-treated with 10 uM BIRB, after 30 minutes of treatment): reduced the 4HNE- or RLS3-driven increase in HSF1 to basal levels

O=S(=O)(NC1CCCCC1)c1ccc2c(c1)C(=NO)c1cc(S(=O)(=O)NC3CCCCC3)ccc1-2 [FIN56]
cell death in response to compound with exogenous prominin2 expression (MDA-MB-231 cells [4]): sufficient to inhibit cell death
sensitivity to compound in prominin2 knock-down cells compared to control cells (Hs578t cells [5]; Hs578t): significant increase in sensitivity
sensitivity to compound in prominin2 knock-down cells compared to control cells (MCF10A cells [6]; MCF10A): significant increase in sensitivity

O=C(/C=C/c1ccc(/C=C/C(=O)Nc2ccc(C3=NCCN3)cc2)cc1)Nc1ccc(C2=NCCN2)cc1 [GW4869]
sensitivity of cells to RSL3 on inhibition of exosome release (Hs578t cells [5]; Hs578t, RSL3 (5 μM) and GW4869 (20 μM), 24 hrs): increased the sensitivity
sensitivity of cells to RSL3 on inhibition of exosome release (MCF10A cells [6]; MCF10A, RSL3 (5 μM) and GW4869 (20 μM), 24 hrs): increased the sensitivity

OO [H2O2]
prominin2 mRNA and protein expression (prominin2 [7]): did not increase prominin2 expression
prominin2 mRNA and protein expression (prominin2 [1]): did not increase prominin2 expression

Cl.N [NH4Cl]
effect on cell survival following GPX4 inhibition (Hs578t cells [5]; Hs578t, 20 mM NH4Cl pre-treatment 60 min, then with RSL3 24 hrs (FIG. 10D)): had no effect on cell survival

COC(=O)c1ccc([C@@H]2c3[nH]c4ccccc4c3C[C@@H](C(=O)OC)N2C(=O)CCl)cc1 [RSL3]
TSG101-positive structures vs vehicle control-treated cells (Hs578t cells [8]): more TSG101-positive structures
TSG101-positive structures vs vehicle control-treated cells (MCF10A cells [9]; RSL3 2 hrs): more TSG101-positive structures
MVBs per cell by TEM vs control cells (MCF10A cells [9]; RSL3, effect not observed in prominin2-silenced cells): significantly more MVBs per cell
prominin2 mRNA and protein expression (prominin2 [7]): increased prominin2 mRNA and protein expression
induction of prominin2 (prominin2 [10]): did not induce prominin2
expression of prominin1 (CD133) (prominin1 (CD133)): not altered significantly
prominin2 mRNA and protein expression (prominin2 [1]): increased prominin2 mRNA and protein expression
HSF1 expression and nuclear localization (HSF1 [2]): increased
free iron in response to RSL3 in control cells (MDA-MB-231 cells [11]): increase in iron
free iron concentration, RSL3-treated vs control cells (Hs578t cells [12]; 5 μM RSL3, 2 hrs): no significant difference
concentration of free iron following RSL3 treatment when either prominin2 or both FTH1 and FTL were silenced (Hs578t cells [12]; siRNA 48 hrs, RSL3 2 hrs): increase
free iron concentration, RSL3-treated vs control cells (MCF10A cells [13]; 5 μM RSL3, 2 hrs): no significant difference
concentration of free iron following RSL3 treatment when either prominin2 or both FTH1 and FTL were silenced (MCF10A cells [13]; siRNA 48 hrs, RSL3 2 hrs): increase
time after treatment at which the increase in HSF1 mRNA peaked (HSF1 [3]): 15 min
expression of HSF1 mRNA by qPCR (HSF1 [3]): significant increase
HSF1 protein expression and phosphorylation at S326 (HSF1 [3]): increased HSF1 protein expression levels as well as phosphorylation at S326
cell death in response to compound with exogenous prominin2 expression (MDA-MB-231 cells [4]): sufficient to inhibit cell death
RSL3 concentrations by which cells were killed (MDA-MB-231 cells [4]; adherent MDA-MB-231, 24 hrs, FIG. 1F): ≥ 0.5 µM
sensitivity to compound in prominin2 knock-down cells compared to control cells (Hs578t cells [5]; Hs578t): significant increase in sensitivity
RSL3 concentrations at which cells were resistant to RSL3-induced cell death (Hs578t cells [5]; adherent Hs578t, 24 hrs, FIG. 1F): up to 2.5
sensitivity to compound in prominin2 knock-down cells compared to control cells (MCF10A cells [6]; MCF10A): significant increase in sensitivity
RSL3 concentrations at which cells were resistant to RSL3-induced cell death (MCF10A cells [6]; adherent MCF10A, 24 hrs, FIG. 1F): up to 2.5
protein in the exosome preparation (MCF10A and Hs578t cells; 1 μM RSL3, 24 hours, exosomal protein in control cells not detected): significant amount of protein
iron in exosomes by ICP-MS (MCF10A and Hs578t cells; exosomes harvested from RSL3-treated cells): 3400 ng per exosome collection sample

COC(=O)C[C@H](NC(=O)[C@H](C)NC(=O)[C@@H](NC(=O)OCc1ccccc1)C(C)C)C(=O)CF [ZVAD-fmk] (Cbz-Val-Ala-Asp(OMe)-CH2F)
rescue of cell viability of ECM-detached prominin2-silenced cells by co-treatment (Hs578t cells [14]): not
rescue of cell viability of ECM-detached prominin2-silenced cells by co-treatment (MCF10A cells [15]): not

C#Cc1cccc(Nc2ncnc3cc(OCCOC)c(OCCOC)cc23)c1 [erlotinib]
sensitivity to RSL3 on co-treatment with other therapeutics (MCF10A cells [6]; MCF10A, 100 nM Dasatinib or 25 uM Erlotinib with RSL3, 24 hours): did not significantly improve sensitivity

CCOC(=O)c1ccc(NC2CCCCC2)c(N)c1 [ferrostatin-1]
rescue of cell viability of ECM-detached prominin2-silenced cells by co-treatment (Hs578t cells [14]): rescued
rescue of cell viability of ECM-detached prominin2-silenced cells by co-treatment (MCF10A cells [15]): rescued
rescue of cell death triggered by GPX4 inhibition in FTH1 and FTL knock-down cells (Hs578t cells [5]; Hs578t, RSL3 24 hrs, 100 uM deferoxamine): rescued
rescue of loss of cell viability in prominin2-depleted cells (Hs578t cells [5]; Hs578t, RSL3 (5 μM) and ferrostatin-1 (2 μM), 24 hrs): completely rescued
rescue of cell death triggered by GPX4 inhibition in FTH1 and FTL knock-down cells (MCF10A cells [6]; MCF10A, RSL3 24 hrs, 100 uM deferoxamine): rescued
rescue of loss of cell viability in prominin2-depleted cells (MCF10A cells [6]; MCF10A, RSL3 (5 μM) and ferrostatin-1 (2 μM), 24 hrs): completely rescued
rescue of RSL3-induced cell death in cells with diminished TSG101 expression (MCF10A cells [6]; MCF10A, TSG101 siRNA 48 hours, RSL3 and ferrostatin-1 24 hrs (FIG. 4C)): rescued
